From ChEMBL document CHEMBL1129925, “Synthesis and antiviral evaluation of 4-hydroxymethyl-2, 3-dideoxy-3-thianucleosides and their cyclic monophosphates” (Bioorg Med Chem Lett, 1997)
Active and inactive are the calls of the source. The calls are words filed in the database; no cut-off is given here.

Tests used:
CD-4+ (A 3.01) [1] = assay: Antiviral activity in CD-4+ (A 3.01) cell line expressed as CC50; format: functional
CD-4+ (A 3.01) [2] = assay: Antiviral activity in CD-4+ (A 3.01) cell line expressed as IC50; format: functional, cell-based
H9 = assay: Antiviral activity in H9 cells expressed as IC50; format: functional, cell-based; conditions: Homo sapiens
CEM-SS = assay: Tested for anti-HIV activity in CEM-SS cell line; Inactive; format: functional, cell-based; conditions: Homo sapiens
MT4 [3] = assay: Antiviral activity in MT-4 cells expressed as CC50; format: functional; conditions: Homo sapiens
MT4 [4] = assay: Antiviral activity in MT-4 cells expressed as IC50; format: functional, cell-based, Homo sapiens
MT4 [5] = assay: Cytotoxicity against MT-4 cells; format: functional; conditions: Homo sapiens
[6] = Antiviral activity in PBM cells; format: functional, cell-based; conditions: Homo sapiens, PBMC
[7] = Cytotoxicity against PBM cells; format: functional; conditions: Homo sapiens, PBMC
MT4 [8] = assay: Antiviral activity in MT-4 cells; format: functional, cell-based; conditions: Homo sapiens
CCRF-CEM [9] = assay: Cytotoxicity against CEM cells; format: functional; conditions: Homo sapiens
[10] = Antiviral activity in PBM cells expressed as CC50; format: functional; conditions: Homo sapiens, PBMC
[11] = Antiviral activity in PBM cells expressed as IC50; format: functional, cell-based, Homo sapiens
CCRF-CEM [12] = assay: Antiviral activity in CEM cells expressed as CC50; format: functional; conditions: Homo sapiens

Question: For `Cc1cn([C@H]2C[C@H](O)[C@](CO)(N=[N+]=[N-])O2)c(=O)[nH]c1=O`, which CC50 (CD-4+ (A 3.01) [1]) is on record?
Answer: The CC50 was 8000 nM.

Question: And the IC50 (CD-4+ (A 3.01) [2])?
Answer: Its IC50 is 10 nM.

Question: With `Nc1ccn(C2CC(CO)C(CO)O2)c(=O)n1` (centres undefined) as the compound, how does the IC50 (H9) read?
Answer: Its IC50 is 10 nM.

Question: For `Cc1cn(C2CSC(CO)(CO)O2)c(=O)[nH]c1=O` (centres undefined), which Anti-HIV activity (CEM-SS) is on record?
Answer: Its Anti-HIV activity is “inactive”.

Question: For `Cc1cn(C2CSC3(COP(=O)(O)OC3)O2)c(=O)[nH]c1=O` (centres undefined), which Anti-HIV activity (CEM-SS) is on record?
Answer: Its Anti-HIV activity is “inactive”.

Question: For `Nc1ccn(C2CSC(CO)(CO)O2)c(=O)n1` (centres undefined), which Anti-HIV activity (CEM-SS) is on record?
Answer: Its Anti-HIV activity is “inactive”.

Question: Which Anti-HIV activity (CEM-SS) does the source give for `Nc1ccn(C2CSC3(COP(=O)(O)OC3)O2)c(=O)n1` (centres undefined) here?
Answer: The Anti-HIV activity was “inactive”.

Question: Which CC50 (MT4 [3]) does the source give for `Nc1ccn([C@@H]2CS[C@H](CO)O2)c(=O)n1` (racemic) [LAMIVUDINE] here?
Answer: Its CC50 is 405000 nM.

Question: What about the IC50 (MT4 [4]; Homo sapiens, MT4) of the same compound?
Answer: Its IC50 is 370 nM.

Question: For `Nc1ccn([C@@H]2CS[C@H](CO)O2)c(=O)n1` (single isomer, unassigned) [LAMIVUDINE], which CC50 (MT4 [5]) is on record?
Answer: Its CC50 is 407000 nM.

Question: What about the IC50 [6] of the same compound?
Answer: Its IC50 is 210 nM.

Question: What about the CC50 [7] of the same compound?
Answer: Its CC50 is greater than 100000 nM.

Question: What about the IC50 (MT4 [8]) of the same compound?
Answer: The IC50 was 370 nM.

Question: What about the CC50 (CCRF-CEM [9]) of the same compound?
Answer: The CC50 was 363000 nM.

Question: Which results are given for `Nc1ccn([C@@H]2CS[C@H](CO)O2)c(=O)n1` (stereo in doubt; (+)) [LAMIVUDINE]?
Answer: CC50 [10]: > 100000 nM; IC50 [11]: 210 nM

Question: What does the source list for `Nc1ccn([C@@H]2CS[C@H](CO)O2)c(=O)n1` (stereo in doubt; (-)) [LAMIVUDINE]?
Answer: CC50 (CCRF-CEM [12]): 363000 nM; IC50 [11]: 2 nM; IC50 (MT4 [4]; mt4): 610 nM
